Assay results: paper PMC10873254, “Preclinical evaluation of new GRPR-antagonists with improved metabolic stability for radiotheranostic use in oncology” (EJNMMI Radiopharmacy and Chemistry, 2024)
Read-outs that look alike come from different tables or passages of the source. Marks after values point to notes of the source that are not given here.

Assays:
in vivo = experiment: in vivo; set-up: species or system BALB/c nu/nu female mice; conditions: female, BALB/c nu/nu, mouse, iv, total radioactivity
From the text: (§1) Animal experiments were planned and performed in accordance with national legislation on protection of laboratory animals, and protocols were approved by the Ethics Committee for Animal Research in Uppsala, Sweden (5.8.18–00473/2021). BALB/c nu/nu female mice were xenografted by subcutaneous injection of PC-3 cells on the hind leg (7 × 10^6 cells/mouse). At the date of the experiment, approximately 6 weeks after implantation, tumour sizes reached 0.11 ± 0.05 g. Groups of four mice were used for each time point. In the first group, mice were iv injected with test radiopeptide (30 kBq in 100 µL PBS supplemented with 1% bovine serum albumin (BSA), corresponding to 40 pmol) and euthanized at 4 h pi. Tumors and relevant organs were collected, weighted and sample radioactivity was measured using the gamma counter. In the case of [^111In]In-AU-SAR-M1 two additional mice groups underwent the same procedure but were euthanized either at 24 h pi, or at 4 h pi following radioligand co-injection with excess (5 nmol) NOTA-PEG2-RM26 to determine the in vivo GRPR-specificity. For statistical analysis Two-Way Anova with Tuckey’s post hock analysis was employed, using GraphPad Prism 7 for Windows® (GraphPad Software, Boston, Massachusetts USA).

PC-3 xenografts = experiment: in vivo; set-up: species or system BALB/c nu/nu female mice; conditions: mouse
From the text: as §1

GRPR = biological target: T1, GRPR (Homo sapiens, UniProt P30550); experiment: GRPR binding affinity and kinetics on PC-3 cells (LigandTracer); conditions: 1-3 nM radioligand
T1 construct: host or cells: PC-3 human prostate adenocarcinoma cells
Experimental: For evaluation of the receptor affinity and binding kinetics, PC-3 cells were seeded in 100 mm Nunc™ Petri dishes (Thermo Fisher, Waltham, MA, USA). A LigandTracer Yellow device (Ridgeview Instruments AB, Uppsala, Sweden) was used to measure the radiation from the Petri dish. Background with RPMI-1640 medium was measured for 30 min, after which 1 nM of radioligand was added and measured for 2 h. An additional concentration (3 nM) was measured for another 2 h, thereafter the medium was aspirated, replaced with fresh medium, and left running overnight to measure the dissociation rate. Data was fitted with the TracerDrawer software (Ridgeview Instruments AB, Uppsala, Sweden).

[1] = 40 pmol, GI (gastrointestinal tract) uptake
[2] = 40 pmol, Small intestines uptake
[3] = 40 pmol, Tumor-to-kidneys ratio
[4] = 40 pmol, Tumor-to-pancreas ratio
[5] = female, BALB/c nu/nu, iv, 40 pmol, 4 h
[6] = 1:2 model for M1 and M3, 1:1 model for M2, read-out: KD1

T1 sequence (P30550 whole entry): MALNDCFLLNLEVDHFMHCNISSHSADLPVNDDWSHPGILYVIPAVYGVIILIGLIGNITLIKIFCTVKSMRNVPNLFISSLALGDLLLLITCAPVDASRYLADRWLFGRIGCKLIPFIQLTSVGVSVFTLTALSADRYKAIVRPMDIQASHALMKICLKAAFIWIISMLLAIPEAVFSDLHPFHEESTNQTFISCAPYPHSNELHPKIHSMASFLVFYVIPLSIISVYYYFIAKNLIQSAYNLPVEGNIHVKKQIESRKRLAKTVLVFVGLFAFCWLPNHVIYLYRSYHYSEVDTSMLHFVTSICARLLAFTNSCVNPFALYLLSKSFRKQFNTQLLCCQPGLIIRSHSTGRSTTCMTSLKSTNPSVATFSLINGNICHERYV

## CCNC(=O)[C@H](CC(C)C)NC(=O)[C@H](Cc1c[nH]cn1)NC(=O)CN(C)C(=O)[C@@H](NC(=O)[C@H](C)NC(=O)[C@H](Cc1c[nH]c2ccccc12)NC(=O)[C@H](CCC(N)=O)NC(=O)[C@@H](Cc1ccccc1)NC(=O)COCC(=O)Nc1ccc(CNC(=O)CCC(C(=O)O)N2CCN(CC(=O)O)CCN(CC(=O)O)CCN(CC(=O)O)CC2)cc1)C(C)C (stereo partly drawn) [[^111In]In-AU-SAR-M1, [^111In]In-DOTAGA-AMA-DIG-DPhe-Gln-Trp-Ala-Val-Sar-His-Leu-NHEt, metal not drawn]
In vivo; 40 pmol, Blood uptake
  tissue uptake at 4 h: 0.08 ± 0.03 %ID/g
  tissue uptake at 24 h: 0.01 ± 0.001 %ID/g
In vivo; 40 pmol, Bone uptake
  tissue uptake at 4 h: 0.3 ± 0.3 %ID/g
  tissue uptake at 24 h: 0.04 ± 0.02 %ID/g
In vivo; 40 pmol, Carcass uptake
  tissue uptake dose at 4 h: 4 ± 2 %ID
  tissue uptake dose at 24 h: 0.48 ± 0.07 %ID
In vivo; [1]
  tissue uptake dose at 4 h: 2 ± 0.9 %ID
  tissue uptake dose at 24 h: 0.62 ± 0.49 %ID
In vivo; 40 pmol, Kidneys uptake
  tissue uptake at 4 h: 3.1 ± 0.3 %ID/g
  tissue uptake at 24 h: 2.38 ± 0.14 %ID/g
In vivo; 40 pmol, Liver uptake
  tissue uptake at 4 h: 0.2 ± 0.1 %ID/g
  tissue uptake at 24 h: 0.09 ± 0.01 %ID/g
In vivo; 40 pmol, Lungs uptake
  tissue uptake at 4 h: 0.2 ± 0.2 %ID/g
  tissue uptake at 24 h: 0.04 ± 0.003 %ID/g
In vivo; 40 pmol, Muscle uptake
  tissue uptake at 4 h: 0.09 ± 0.06 %ID/g
  tissue uptake at 24 h: 0.02 ± 0.01 %ID/g
In vivo; 40 pmol, Pancreas uptake
  tissue uptake at 4 h: 2 ± 1 %ID/g
  tissue uptake at 24 h: 0.12 ± 0.03 %ID/g
In vivo; [2]
  tissue uptake at 4 h: 0.8 ± 0.5 %ID/g
  tissue uptake at 24 h: 0.07 ± 0.03 %ID/g
In vivo; 40 pmol, Spleen uptake
  tissue uptake at 4 h: 0.12 ± 0.05 %ID/g
  tissue uptake at 24 h: 0.1 ± 0.04 %ID/g
In vivo; 40 pmol, Tumor uptake
  tissue uptake at 4 h: 11 ± 1 %ID/g
  tissue uptake at 24 h: 6.3 ± 0.8 %ID/g
In vivo; 40 pmol, Tumor-to-blood ratio
  tissue to tissue ratio at 4 h: 160
  tissue to tissue ratio at 24 h: > 550
In vivo; 40 pmol, Tumor-to-bone ratio
  tissue to tissue ratio: > 150
  tissue to tissue ratio at 4 h: 74 ± 68
  tissue to tissue ratio at 24 h: 173 ± 72
In vivo; [3]
  tissue to tissue ratio at 4 h: 3.6 ± 0.2
  tissue to tissue ratio at 24 h: 2.7 ± 0.2
In vivo; 40 pmol, Tumor-to-liver ratio
  tissue to tissue ratio at 4 h: 65 ± 22
  tissue to tissue ratio at 24 h: 67 ± 6
In vivo; 40 pmol, Tumor-to-lungs ratio
  tissue to tissue ratio at 4 h: 68 ± 39
  tissue to tissue ratio at 24 h: 174 ± 29
In vivo; 40 pmol, Tumor-to-muscle ratio
  tissue to tissue ratio at 4 h: 167 ± 102
  tissue to tissue ratio at 24 h: 375 ± 95
In vivo; [4]
  tissue to tissue ratio at 4 h: 9 ± 11
  tissue to tissue ratio at 24 h: 57 ± 18
In vivo; 40 pmol, Tumor-to-spleen ratio
  tissue to tissue ratio at 4 h: 61 ± 19
  tissue to tissue ratio at 24 h: 70 ± 20
In vivo; Carcass uptake
  tissue uptake dose at 4 h: 1.1 ± 0.6 %ID
In vivo; GI (gastrointestinal tract) uptake
  tissue uptake dose at 4 h: 1.5 ± 0.3 %ID
PC-3 xenografts; [5]
  Tumor-to-blood ratio: 141 ± 61^a
  Tumor-to-pancreas ratio: 8 ± 7
PC-3 xenografts; female, BALB/c nu/nu, iv, 40 pmol, 24 h
  Tumor-to-blood ratio: 557 ± 58^ a
PC-3 xenografts
  Decrease of tumor uptake from 4 h to 24 h pi: ~40%
  Increase of tumor-to-muscle ratio from 4 h to 24 h pi: about 1.8 fold
  Initial pancreas uptake remaining at 24 h pi: 5%
  Tumor uptake at 24 h pi as % of the 4 h pi value: 57%
GRPR; [6]
  Kd: 0.39 nM
GRPR; 1:2 model, read-out: KD2
  Kd: 1.1 nM

## CCNC(=O)[C@H](CC(C)C)NC(=O)[C@H](Cc1c[nH]cn1)NC(=O)CN(C)C(=O)[C@@H](NC(=O)[C@H](C)NC(=O)[C@H](Cc1c[nH]c2ccccc12)NC(=O)[C@H](CCC(N)=O)NC(=O)[C@@H](Cc1ccccc1)NC(=O)COCC(=O)Nc1ccc(CNC(=O)[C@H](CCCNC(=N)N)NC(=O)CCC(C(=O)O)N2CCN(CC(=O)O)CCN(CC(=O)O)CCN(CC(=O)O)CC2)cc1)C(C)C (stereo partly shown) [[^111In]In-AU-SAR-M2, [^111In]In-[DOTAGA-Arg]AU-SAR-M1, metal not drawn]
In vivo; 40 pmol, Blood uptake
  tissue uptake at 4 h: 0.08 ± 0.01 %ID/g
In vivo; 40 pmol, Bone uptake
  tissue uptake at 4 h: 0.23 ± 0.04 %ID/g
In vivo; 40 pmol, Carcass uptake
  tissue uptake dose at 4 h: 4 ± 2 %ID
In vivo; [1]
  tissue uptake dose at 4 h: 2.9 ± 0.3 %ID
In vivo; 40 pmol, Kidneys uptake
  tissue uptake at 4 h: 3.4 ± 0.4 %ID/g
In vivo; 40 pmol, Liver uptake
  tissue uptake at 4 h: 0.3 ± 0.1 %ID/g
In vivo; 40 pmol, Lungs uptake
  tissue uptake at 4 h: 0.2 ± 0.1 %ID/g
In vivo; 40 pmol, Muscle uptake
  tissue uptake at 4 h: 0.09 ± 0.04 %ID/g
In vivo; 40 pmol, Pancreas uptake
  tissue uptake at 4 h: 9 ± 2 %ID/g
In vivo; [2]
  tissue uptake at 4 h: 2.4 ± 0.9 %ID/g
In vivo; 40 pmol, Spleen uptake
  tissue uptake at 4 h: 0.3 ± 0.1 %ID/g
In vivo; 40 pmol, Tumor uptake
  tissue uptake at 4 h: 12.7 ± 0.8 %ID/g
In vivo; 40 pmol, Tumor-to-blood ratio
  tissue to tissue ratio at 4 h: 159 ± 32
In vivo; 40 pmol, Tumor-to-bone ratio
  tissue to tissue ratio at 4 h: 58 ± 12
In vivo; [3]
  tissue to tissue ratio at 4 h: 3.8 ± 0.6
In vivo; 40 pmol, Tumor-to-liver ratio
  tissue to tissue ratio at 4 h: 47 ± 14
In vivo; 40 pmol, Tumor-to-lungs ratio
  tissue to tissue ratio at 4 h: 63 ± 22
In vivo; 40 pmol, Tumor-to-muscle ratio
  tissue to tissue ratio at 4 h: 161 ± 74
In vivo; [4]
  tissue to tissue ratio at 4 h: 1.4 ± 0.3
In vivo; 40 pmol, Tumor-to-spleen ratio
  tissue to tissue ratio at 4 h: 46 ± 11
PC-3 xenografts
  Tumor-to-small intestines ratio: 6 ± 2
GRPR; [6]
  Kd: 0.031 nM

## CCNC(=O)[C@H](CC(C)C)NC(=O)[C@H](Cc1c[nH]cn1)NC(=O)CN(C)C(=O)[C@@H](NC(=O)[C@H](C)NC(=O)[C@H](Cc1c[nH]c2ccccc12)NC(=O)[C@H](CCC(N)=O)NC(=O)[C@@H](Cc1ccccc1)NC(=O)COCC(=O)Nc1ccc(CNC(=O)[C@@H](CCCNC(=N)N)NC(=O)CCC(C(=O)O)N2CCN(CC(=O)O)CCN(CC(=O)O)CCN(CC(=O)O)CC2)cc1)C(C)C (stereo partly shown) [[^111In]In-AU-SAR-M3, [^111In]In-[DOTAGA-DArg]AU-SAR-M1, metal not drawn]
In vivo; 40 pmol, Blood uptake
  tissue uptake at 4 h: 0.05 ± 0.01 %ID/g
In vivo; 40 pmol, Bone uptake
  tissue uptake at 4 h: 0.17 ± 0.04 %ID/g
In vivo; 40 pmol, Carcass uptake
  tissue uptake dose at 4 h: 2.1 ± 0.2 %ID
In vivo; [1]
  tissue uptake dose at 4 h: 0.7 ± 0.2 %ID
In vivo; 40 pmol, Kidneys uptake
  tissue uptake at 4 h: 5 ± 0.5 %ID/g
In vivo; 40 pmol, Liver uptake
  tissue uptake at 4 h: 0.25 ± 0.02 %ID/g
In vivo; 40 pmol, Lungs uptake
  tissue uptake at 4 h: 0.15 ± 0.03 %ID/g
In vivo; 40 pmol, Muscle uptake
  tissue uptake at 4 h: 0.07 ± 0.03 %ID/g
In vivo; 40 pmol, Pancreas uptake
  tissue uptake at 4 h: 0.5 ± 0.1 %ID/g
In vivo; [2]
  tissue uptake at 4 h: 0.2 ± 0.2 %ID/g
In vivo; 40 pmol, Spleen uptake
  tissue uptake at 4 h: 0.18 ± 0.03 %ID/g
In vivo; 40 pmol, Tumor uptake
  tissue uptake at 4 h: 6.7 ± 0.3 %ID/g
In vivo; 40 pmol, Tumor-to-blood ratio
  tissue to tissue ratio at 4 h: 147 ± 43
In vivo; 40 pmol, Tumor-to-bone ratio
  tissue to tissue ratio at 4 h: 41 ± 9
In vivo; [3]
  tissue to tissue ratio at 4 h: 1.4 ± 0.1
In vivo; 40 pmol, Tumor-to-liver ratio
  tissue to tissue ratio at 4 h: 27 ± 3
In vivo; 40 pmol, Tumor-to-lungs ratio
  tissue to tissue ratio at 4 h: 47 ± 14
In vivo; 40 pmol, Tumor-to-muscle ratio
  tissue to tissue ratio at 4 h: 107 ± 63
In vivo; [4]
  tissue to tissue ratio at 4 h: 14 ± 3
In vivo; 40 pmol, Tumor-to-spleen ratio
  tissue to tissue ratio at 4 h: 39 ± 8
PC-3 xenografts
  Tumor-to-small intestines ratio: 25 ± 7
GRPR; [6]
  Kd: 0.3 nM
GRPR; read-out: KD2, 1:2 model
  Kd: 1.1 nM
